Experimental data: PubChem BioAssay AID1963829 (Molecular Pharmacology Branch, DTP, NCI, 2024)

Test system: 935938-334-R-J1-PDC complex spheroid viability
Assay: Anticancer human tumor 935938-334-R-J1-PDC patient-derived small intestine adenocarcinoma cell line growth inhibition [POLQ]
Conditions: for IC50: curve of first compound; for viability, T/C: stronger effect = lower value
Procedure, shortened: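 Complex spheroid viability model combining PDC tumour cells with endothelial (HUVEC) and MSC stromal cells. Novobiocin, ART-558 or RP6685 were tested singly and in combination with standard and investigational anticancer drugs. Each was titrated in half-log steps from near clinical Cmax, or from 10 microM where Cmax was unknown.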

[1] = second compound 0.0316 µM, first compound 0.0316 µM
[2] = second compound 0.0316 µM, first compound 0.1 µM
[3] = second compound 0.0316 µM, first compound 0.316 µM
[4] = second compound 0.0316 µM, first compound 1 µM
[5] = second compound 0.1 µM, first compound 0.0316 µM
[6] = second compound 0.1 µM, first compound 0.1 µM
[7] = second compound 0.1 µM, first compound 0.316 µM
[8] = second compound 0.1 µM, first compound 1 µM
[9] = second compound 0.316 µM, first compound 0.0316 µM
[10] = second compound 0.316 µM, first compound 0.1 µM
[11] = second compound 0.316 µM, first compound 0.316 µM
[12] = second compound 0.316 µM, first compound 1 µM
[13] = second compound 1 µM, first compound 0.0316 µM
[14] = second compound 1 µM, first compound 0.1 µM
[15] = second compound 1 µM, first compound 0.316 µM
[16] = second compound 1 µM, first compound 1 µM
[17] = second compound 3.16 µM, first compound 0.0316 µM
[18] = second compound 3.16 µM, first compound 0.1 µM
[19] = second compound 3.16 µM, first compound 0.316 µM
[20] = second compound 3.16 µM, first compound 1 µM
[21] = second compound 10 µM, first compound 0.0316 µM
[22] = second compound 10 µM, first compound 0.1 µM
[23] = second compound 10 µM, first compound 0.316 µM
[24] = second compound 10 µM, first compound 1 µM
[25] = second compound 0.0316 µM, first compound 3.16 µM
[26] = second compound 0.0316 µM, first compound 10 µM
[27] = second compound 0.1 µM, first compound 3.16 µM
[28] = second compound 0.1 µM, first compound 10 µM
[29] = second compound 0.316 µM, first compound 3.16 µM
[30] = second compound 0.316 µM, first compound 10 µM
[31] = second compound 1 µM, first compound 3.16 µM
[32] = second compound 1 µM, first compound 10 µM
[33] = second compound 3.16 µM, first compound 3.16 µM
[34] = second compound 3.16 µM, first compound 10 µM
[35] = second compound 10 µM, first compound 3.16 µM
[36] = second compound 10 µM, first compound 10 µM
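Further: spheroids exposed to drugs for seven days before viability read.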
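Wherever viability, T/C is given: 100% = DMSO vehicle control wells.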

C=CCn1c(=O)c2cnc(Nc3ccc(N4CCN(C)CC4)cc3)nc2n1-c1cccc(C(C)(C)O)n1 + Cc1cccc(N(C)C(=O)C2C(O)CCN2c2nc(C)cc(C(F)(F)F)c2C#N)c1
IC50 (second compound 0.0316 µM): 591 nM | IC50 (second compound 0.1 µM): 500 nM | IC50 (second compound 0.316 µM): 513 nM | IC50 (second compound 1 µM): 669 nM | IC50 (second compound 3.16 µM): 595 nM | IC50 (second compound 10 µM): 516 nM | viability, T/C (second compound 0.0316 µM, first compound 0.00316 µM): 86.3% | viability, T/C (second compound 0.0316 µM, first compound 0.01 µM): 67.3% | viability, T/C [1]: 80% | viability, T/C [2]: 85.8% | viability, T/C [3]: 77.8% | viability, T/C [4]: 26.6% | viability, T/C (second compound 0.1 µM, first compound 0.00316 µM): 93% | viability, T/C (second compound 0.1 µM, first compound 0.01 µM): 87.5% | viability, T/C [5]: 97% | viability, T/C [6]: 107% | viability, T/C [7]: 66% | viability, T/C [8]: 25.7% | viability, T/C (second compound 0.316 µM, first compound 0.00316 µM): 90.4% | viability, T/C (second compound 0.316 µM, first compound 0.01 µM): 110% | viability, T/C [9]: 83.6% | viability, T/C [10]: 95.9% | viability, T/C [11]: 67.8% | viability, T/C [12]: 25.5% | viability, T/C (second compound 1 µM, first compound 0.00316 µM): 94.8% | viability, T/C (second compound 1 µM, first compound 0.01 µM): 98.6% | viability, T/C [13]: 106% | viability, T/C [14]: 104% | viability, T/C [15]: 92.1% | viability, T/C [16]: 27% | viability, T/C (second compound 3.16 µM, first compound 0.00316 µM): 69.9% | viability, T/C (second compound 3.16 µM, first compound 0.01 µM): 112% | viability, T/C [17]: 74.9% | viability, T/C [18]: 87.7% | viability, T/C [19]: 78.4% | viability, T/C [20]: 26.2% | viability, T/C (second compound 10 µM, first compound 0.00316 µM): 103% | viability, T/C (second compound 10 µM, first compound 0.01 µM): 101% | viability, T/C [21]: 88.7% | viability, T/C [22]: 96.4% | viability, T/C [23]: 72.2% | viability, T/C [24]: 19.6%

O=c1[nH]cc(F)c(=O)[nH]1 + Nc1ccc(C#CCN(C(=O)Cc2ncc(C(F)(F)F)cc2C(F)(F)F)c2ccc(F)cc2)nn1
IC50 (second compound 0.0316 µM): > 10000 nM | IC50 (second compound 0.1 µM): > 10000 nM | IC50 (second compound 0.316 µM): > 10000 nM | IC50 (second compound 1 µM): > 10000 nM | IC50 (second compound 3.16 µM): > 10000 nM | IC50 (second compound 10 µM): > 10000 nM | viability, T/C [1]: 83% | viability, T/C [2]: 88.5% | viability, T/C [3]: 87.4% | viability, T/C [4]: 68.5% | viability, T/C [25]: 62.7% | viability, T/C [26]: 48.8% | viability, T/C [5]: 101% | viability, T/C [6]: 92.9% | viability, T/C [7]: 82.1% | viability, T/C [8]: 66.3% | viability, T/C [27]: 60.7% | viability, T/C [28]: 53.4% | viability, T/C [9]: 81.5% | viability, T/C [10]: 74.1% | viability, T/C [11]: 88.9% | viability, T/C [12]: 68.4% | viability, T/C [29]: 55.8% | viability, T/C [30]: 56.5% | viability, T/C [13]: 103% | viability, T/C [14]: 79.7% | viability, T/C [15]: 104% | viability, T/C [16]: 68.9% | viability, T/C [31]: 55% | viability, T/C [32]: 61% | viability, T/C [17]: 92.2% | viability, T/C [18]: 85.8% | viability, T/C [19]: 86.6% | viability, T/C [20]: 62.1% | viability, T/C [33]: 61% | viability, T/C [34]: 53.7% | viability, T/C [21]: 125% | viability, T/C [22]: 101% | viability, T/C [23]: 91.8% | viability, T/C [24]: 58.3% | viability, T/C [35]: 52.4% | viability, T/C [36]: 56.7%

COc1cc(C2c3cc4c(cc3C(OC3OC5COC(C)OC5C(O)C3O)C3COC(=O)C23)OCO4)cc(OC)c1O (stereo unspecified) + Nc1ccc(C#CCN(C(=O)Cc2ncc(C(F)(F)F)cc2C(F)(F)F)c2ccc(F)cc2)nn1
IC50 (second compound 0.0316 µM): 832 nM | IC50 (second compound 0.1 µM): 666 nM | IC50 (second compound 0.316 µM): 762 nM | IC50 (second compound 1 µM): 616 nM | IC50 (second compound 3.16 µM): 597 nM | IC50 (second compound 10 µM): 565 nM | viability, T/C [1]: 95.1% | viability, T/C [2]: 86.1% | viability, T/C [3]: 87.8% | viability, T/C [4]: 42.9% | viability, T/C [25]: 26.8% | viability, T/C [26]: 31.6% | viability, T/C [5]: 99.5% | viability, T/C [6]: 90.8% | viability, T/C [7]: 74.5% | viability, T/C [8]: 35.5% | viability, T/C [27]: 37.5% | viability, T/C [28]: 29.9% | viability, T/C [9]: 108% | viability, T/C [10]: 68.9% | viability, T/C [11]: 69.1% | viability, T/C [12]: 49.6% | viability, T/C [29]: 31.2% | viability, T/C [30]: 30.4% | viability, T/C [13]: 83.3% | viability, T/C [14]: 89.2% | viability, T/C [15]: 60.3% | viability, T/C [16]: 43.9% | viability, T/C [31]: 28% | viability, T/C [32]: 31.7% | viability, T/C [17]: 109% | viability, T/C [18]: 86.7% | viability, T/C [19]: 64.6% | viability, T/C [20]: 37.6% | viability, T/C [33]: 32.7% | viability, T/C [34]: 31.3% | viability, T/C [21]: 110% | viability, T/C [22]: 79.2% | viability, T/C [23]: 64.8% | viability, T/C [24]: 38.4% | viability, T/C [35]: 29% | viability, T/C [36]: 33.7%
